The text below walks through data of patent US12318361B2, “Methods for treating cardiovascular diseases” (Olatec Therapeutics LLC, priority 2017, dated 2025).

In assay [1] the test system is mice, intra-articular zymosan arthritis model. In words: Zymosan-induced knee joint arthritis in mice. In kind it is in vivo. The note with it: 600 mg/kg oral gavage, 5 doses, 24 h after zymosan. The procedure: Zymosan injected directly into the knee joint of mice elicits an inflammatory response and is used as a model of arthritis (Verschure et al, Ann. Rheum Dis. 53:455-460, 1994). Endpoints measured in this model include knee joint swelling score, cytokine levels in the synovial tissue and microscopic pathology of the knee.
Arthritis was induced in mice by intra-articular injection of zymosan (180 μg) into the knee joint (at time zero) of both knees in each mouse. Mice were treated by oral gavage with vehicle (saline, n=5) or dapansutrile (drug) in vehicle (600 mg/kg, n=4) at times −25 hr, −13 hr, and −1 hr. After zymosan injection at time zero, mice were further treated with vehicle or dapansutrile (600 mg/kg) at times +11 hr and +23 hr. Mice were terminated 24 hours after the zymosan injection.
Macroscopic joint swelling was assessed on all knees after the skin is removed using a scoring system ranging from 0 to 3, with 0 being no swelling and 3 being severe swelling.
In addition, synovial membrane was taken from one knee per mouse and the cells were lysed for measurement of mouse IL-1β, using an ELISA kit from R&D Systems, Inc., following manufacturer's protocols. The results are shown as mean ±standard error of mean and statistical evaluation is performed (see FIG. 2).

Assay [2] concerns adult CD1 male mice, acute myocardial infarction. In words: Acute myocardial infarction (30 min ischemia, 24 h reperfusion), infarct sparing effect, Example 8. In kind it is in vivo. The note with it: 60 mg/kg IP immediately after reperfusion, vs vehicle. As to the method: An acute myocardial infarction in adult CD1 male mice was induced by performing a transient surgical ligation of the left coronary artery for 30 minutes followed by reperfusion for 24 hours: 3 mice received OLT1177™ (60 mg/kg) given intraperitoneally immediately after reperfusion and 8 mice received an equal volume of vehicle (NaCl 0.9%). After 24 hours, left ventricular fractional shortening, a surrogate for cardiac systolic function, was measured, using transthoracic echocardiography. After the echocardiogram, the mice were prepared for infarct size measurement using the Triphenyl-Tetrazolium-Chloride (TTC) and Evans Blue technique and then sacrificed: the area of the heart considered not ischemia (non-risk area) appeared blue, the area of the heart that was at risk but viable appeared red, the infarct myocardium appeared pale-white. The left panel of FIG. 6 depicts the TTC/Evans Blue staining of one mouse treated with vehicle and one with OLT1177™: it is apparent that the area of infarct is much larger in the vehicle.

Molecules are shown by their SMILES.

For the compound `CS(=O)(=O)CCC#N` [OLT1177™, 3-methanesulfonyl-propionitrile], the “level of IL-1β in synovial membrane” value in assay [1] (vs untreated mice) is listed as “significantly reduced”. Also, the “macroscopic joint swelling (score 0 to 3)” value in assay [1] (vs vehicle-treated mice) was “significant reduction”. Further, in assay [2], the “infarct size as percentage of the area-at-risk” value is “significantly smaller” and the “left ventricular systolic function (fractional shortening)” value is listed as “preservation”.
